# Assay results reported in patent publication US20070299087A1, “New Compounds 319” (AstraZeneca AB, priority 2006, published 2007).
# Structures can show the parent of a compound that is named as a salt.
# Biological target: T1, human β-Secretase (sBACE-Fc) (Homo sapiens, UniProt P56817)
# T1 construct: The soluble part of the human β-Secretase (AA 1-AA 460) was cloned; Fc domain of IgG1 (C); made in house
# Assay: TR-FRET assay (β-secretase enzyme, substrate (Europium)[…](Qsy7))
# Type: biochemical
# Method: The enzyme used in the IGEN Cleavage-, Fluorescent-, TR-FRET- and BiaCore assays is described as follows:
# The soluble part of the human β-Secretase (AA 1-AA 460) was cloned into the ASP2-Fc10-1-IRES-GFP-neoK mammalian expression vector. The gene was fused to the Fc domain of IgG1 (affinity tag) and stably cloned into HEK 293 cells. Purified sBACE-Fc is stored in Tris buffer, pH 9.2 and has a purity of 95%.
# Enzyme was diluted to 6 μg/mL and the substrate (Europium)[…](Qsy7) to 200 nM in reaction buffer (NaAcetate, chaps, triton x-100, EDTA pH 4.5). Compounds were diluted to the desired concentration in dimethyl sulfoxide (final dimethyl sulfoxide concentration in assay is 5%). The assay was done in a Costar 384 well round bottom, low volume, non-binding surface plate (Corning #3676). Enzyme (9 μL) and 1 μL of compound in dimethyl sulfoxide was added to the plate, mixed and pre-incubated for 10 min. Substrate (10 μL) was added and the reaction proceeded in the dark for 15 min at RT. The reaction was stopped with the addition of 7 μL NaAcetate, pH 9. The fluorescence of the product was measured on a Victor II plate reader with an excitation wavelength of 340 nm and an emission wavelength of 615 nm. […] The dimethyl sulfoxide control defined the 100% activity level and 0% activity was defined by exclusion of the enzyme (using reaction buffer instead).
# T1 sequence (P56817 22-460): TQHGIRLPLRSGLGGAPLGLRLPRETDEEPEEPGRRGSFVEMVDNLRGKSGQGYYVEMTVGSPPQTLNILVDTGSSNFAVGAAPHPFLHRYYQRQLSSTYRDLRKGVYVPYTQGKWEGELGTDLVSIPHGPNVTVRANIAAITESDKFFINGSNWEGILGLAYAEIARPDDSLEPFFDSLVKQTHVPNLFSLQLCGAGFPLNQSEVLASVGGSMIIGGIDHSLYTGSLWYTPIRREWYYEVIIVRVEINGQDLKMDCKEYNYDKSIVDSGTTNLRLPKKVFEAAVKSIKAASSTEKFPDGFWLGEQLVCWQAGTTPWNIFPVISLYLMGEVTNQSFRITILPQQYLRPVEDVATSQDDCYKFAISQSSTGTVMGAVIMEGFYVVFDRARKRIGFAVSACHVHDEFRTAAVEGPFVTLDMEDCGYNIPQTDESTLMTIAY
row,IC50 [µM],SMILES
1,0.353,"N#Cc1cccc(-c2cccc(C3(c4ccncc4)N=C(N)N4CCCN=C43)c2)c1 (stereo not shown) [Example 13, 3′-(6-Amino-8-pyridin-4-yl-2,3,4,8-tetrahydroimidazo[1,5-a]pyrimidin-8-yl)-biphenyl-3-carbonitrile hydrochloride]"
2,0.072,"COc1cccc(-c2cccc(C3(c4ccncc4)N=C(N)N4CCCN=C43)c2)c1 (stereo not shown) [Example 14, 8-(3′-Methoxybiphenyl-3-yl)-8-pyridin-4-yl-2,3,4,8-tetrahydroimidazo[1,5-a]pyrimidin-6-amine 0.25 acetate]"
3,0.117,"COc1cncc(-c2cccc(C3(c4ccncc4)N=C(N)N4CCCN=C43)c2)c1 (stereo not shown) [Example 15, 8-[3-(5-Methoxypyridin-3-yl)phenyl]-8-pyridin-4-yl-2,3,4,8-tetrahydroimidazo[1,5-a]pyrimidin-6-amine 0.25 acetate]"
4,0.053,"NC1=NC(c2ccncc2)(c2cccc(-c3cccc(Cl)c3)c2)C2=NCCCN12 (stereo not shown) [Example 16, 8-(3′-Chlorobiphenyl-3-yl)-8-pyridin-4-yl-2,3,4,8-tetrahydroimidazo[1,5-a]pyrimidin-6-amine 0.25 acetate]"
5,0.15,"NC1=NC(c2ccncc2)(c2cccc(-c3cccnc3F)c2)C2=NCCCN12 (stereo not shown) [Example 17, 8-[3-(2-Fluoropyridin-3-yl)phenyl]-8-pyridin-4-yl-2,3,4,8-tetrahydroimidazo[1,5-a]pyrimidin-6-amine 0.25 acetate]"
6,0.074,"COc1ccc(F)c(-c2cccc(C3(c4ccncc4)N=C(N)N4CCCN=C43)c2)c1 (stereo not shown) [Example 19, 8-(2′-Fluoro-5′-methoxybiphenyl-3-yl)-8-pyridin-4-yl-2,3,4,8-tetrahydroimidazo[1,5-a]pyrimidin-6-amine 0.25 acetate]"
7,0.396,"N#Cc1ccc(F)c(-c2cccc(C3(c4ccncc4)N=C(N)N4CCCN=C43)c2)c1 (stereo not shown) [Example 20, 3′-(6-amino-8-pyridin-4-yl-2,3,4,8-tetrahydroimidazo[1,5-a]pyrimidin-8-yl)-6-fluorobiphenyl-3-carbonitrile 0.25 acetate]"
8,0.418,"N#Cc1cc(-c2cccc(C3(c4ccncc4)N=C(N)N4CCCN=C43)c2)ccc1F (stereo not shown) [Example 22, 3′-(6-amino-8-pyridin-4-yl-2,3,4,8-tetrahydroimidazo[1,5-a]pyrimidin-8-yl)-4-fluorobiphenyl-3-carbonitrile 0.25 acetate]"
9,0.099,"NC1=NC(c2ccncc2)(c2cccc(-c3cccc(Cl)c3F)c2)C2=NCCCN12 (stereo not shown) [Example 23, 8-(3′-Chloro-2′-fluorobiphenyl-3-yl)-8-pyridin-4-yl-2,3,4,8-tetrahydroimidazo[1,5-a]pyrimidin-6-amine 0.25 acetate]"
10,0.39,"NC1=NC(c2ccncc2)(c2cccc(-c3cccc(C(F)(F)F)c3)c2)C2=NCCCN12 (stereo not shown) [Example 24, 8-Pyridin-4-yl-8-[3′-(trifluoromethyl)biphenyl-3-yl]-2,3,4,8-tetrahydroimidazo[1,5-a]pyrimidin-6-amine 0.25 acetate]"
11,5.08,"CS(=O)(=O)c1cccc(-c2cccc(C3(c4ccncc4)N=C(N)N4CCCN=C43)c2)c1 (stereo not shown) [Example 25, 8-[3′-(Methylsulfonyl)biphenyl-3-yl]-8-pyridin-4-yl-2,3,4,8-tetrahydroimidazo[1,5-a]pyrimidin-6-amine 0.25 acetate]"
12,0.025,"NC1=NC(c2ccncc2)(c2cccc(-c3cc(Cl)cc(Cl)c3)c2)C2=NCCCN12 (stereo not shown) [Example 26, 8-(3′,5′-Dichlorobiphenyl-3-yl)-8-pyridin-4-yl)-2,3,4,8-tetrahydroimidazo[1,5-a]pyrimidin-6-amine 0.25 acetate]"
13,0.066,"COc1cc(Cl)cc(-c2cccc(C3(c4ccncc4)N=C(N)N4CCCN=C43)c2)c1 (stereo not shown) [Example 27, 8-(3′-Chloro-5′-methoxybiphenyl-3-yl)-8-pyridin-4-yl-2,3,4,8-tetrahydroimidazo[1,5-a]pyrimidin-6-amine 0.25 acetate]"
14,5.07,"NC1=NC(c2ccncc2)(c2cccc(-c3cccc(Cl)c3Cl)c2)C2=NCCCN12 (stereo not shown) [Example 28, 8-(2′,3′-Dichlorobiphenyl-3-yl)-8-pyridin-4-yl-2,3,4,8-tetrahydroimidazo[1,5-a]pyrimidin-6-amine 0.25 acetate]"
15,0.087,"NC1=NC(c2ccncc2)(c2cccc(-c3cc(Cl)cnc3F)c2)C2=NCCCN12 (stereo not shown) [Example 29, 8-[3-(5-Chloro-2-fluoropyridin-3-yl)phenyl]-8-pyridin-4-yl-2,3,4,8-tetrahydroimidazo[1,5-a]pyrimidin-6-amine 0.25 acetate]"
16,0.328,"CCOc1cccc(-c2cccc(C3(c4ccncc4)N=C(N)N4CCCN=C43)c2)c1 (stereo not shown) [Example 30, 8-(3′-Ethoxybiphenyl-3-yl)-8-pyridin-4-yl-2,3,4,8-tetrahydroimidazo[1,5-a]pyrimidin-6-amine 0.25 acetate]"

row,IC50 [µM],SMILES
1,0.079,"NC1=NC(c2ccncc2)(c2cccc(-c3cc(Cl)ccc3F)c2)C2=NCCCN12 (stereo not shown) [Example 31, 8-(5′-Chloro-2′-fluorobiphenyl-3-yl)-8-pyridin-4-yl-2,3,4,8-tetrahydroimidazo[1,5-a]pyrimidin-6-amine 0.25 acetate]"
2,0.515,"COc1cc(-c2cccc(C3(c4ccncc4)N=C(N)N4CCCN=C43)c2)ccc1F (stereo not shown) [Example 32, 8-(4′-Fluoro-3′-methoxybiphenyl-3-yl)-8-pyridin-4-yl-2,3,4,8-tetrahydroimidazo[1,5-a]pyrimidin-6-amine 0.25 acetate]"
3,0.186,"NC1=NC(c2ccncc2)(c2cccc(-c3cncc(F)c3)c2)C2=NCCCN12 (stereo not shown) [Example 34, 8-[3-(5-Fluoropyridin-3-yl)phenyl]-8-pyridin-4-yl-2,3,4,8-tetrahydroimidazo[1,5-a]pyrimidin-6-amine 0.25 acetate]"
4,0.057,"COc1cc(OS(C)(=O)=O)cc(-c2cccc(C3(c4ccncc4)N=C(N)N4CCCN=C43)c2)c1 (stereo not shown) [Example 35, 3′-(6-Amino-8-pyridin-4-yl-2,3,4,8-tetrahydroimidazo[1,5-a]pyrimidin-8-yl)-5-methoxybiphenyl-3-yl methanesulfonate 0.25 acetate]"
5,0.267,"NC1=NC(c2ccncc2)(c2cccc(-c3cc(Cl)ccc3Cl)c2)C2=NCCCN12 (stereo not shown) [Example 36, 8-(2′,5′-Dichlorobiphenyl-3-yl)-8-pyridin-4-yl-2,3,4,8-tetrahydroimidazo[1,5-a]pyrimidin-6-amine 0.25 acetate]"
6,0.099,"NC1=NC(c2ccncc2)(c2cccc(-c3ccc(F)c(Cl)c3)c2)C2=NCCCN12 (stereo not shown) [Example 37, 8-(3′-Chloro-4′-fluorobiphenyl-3-yl)-8-pyridin-4-yl-2,3,4,8-tetrahydroimidazo[1,5-a]pyrimidin-6-amine 0.25 acetate]"
7,0.152,"NC1=NC(c2ccoc2)(c2cccc(-c3cc(Cl)cc(Cl)c3)c2)C2=NCCCN12 (stereo not shown) [Example 43, 8-(3′,5′-Dichlorobiphenyl-3-yl)-8-(3-furyl)-2,3,4,8-tetrahydroimidazo[1,5-a]pyrimidin-6-amine acetate]"
8,0.656,"NC1=NC(c2ccoc2)(c2cccc(-c3cccnc3F)c2)C2=NCCCN12 (stereo not shown) [Example 44, 8-[3-(2-Fluoropyridin-3-yl)phenyl]-8-(3-furyl)-2,3,48-tetrahydroimidazo[1,5-a]pyrimidin-6-amine acetate]"
9,0.074,"NC1=NC(c2cccc(-c3cc(Cl)cc(Cl)c3)c2)(c2ccco2)C2=NCCCN12 (stereo not shown) [Example 50, 8-(3′,5′-Dichlorobiphenyl-3-yl)-8-(2-furyl)-2,3,4,8-tetrahydroimidazo[1,5-a]pyrimidin-6-amine acetate]"
10,0.472,"COc1cccc(-c2cccc(C3(c4ccco4)N=C(N)N4CCCN=C43)c2)c1 (stereo not shown) [Example 51, 8-(2-Furyl)-8-(3′-methoxybiphenyl-3-yl)-2,3,4,8-tetrahydroimidazo[1,5-a]pyrimidin-6-amine acetate]"
11,3.79,"Cc1nc(C2(c3cccc(-c4cc(Cl)cc(Cl)c4)c3)N=C(N)N3CCCN=C32)cs1 (stereo not shown) [Example 57, 8-(3′,5′-Dichlorobiphenyl-3-yl)-8-(2-methyl-1,3-thiazol-4-yl)-2,3,4,8-tetrahydroimidazo[1,5-a]pyrimidin-6-amine acetate]"
12,0.068,"NC1=NC(c2ccsc2)(c2cccc(-c3cc(Cl)cc(Cl)c3)c2)C2=NCCCN12 (stereo not shown) [Example 63, 8-(3′,5′-Dichlorobiphenyl-3-yl)-8-(3-thienyl)-2,3,4,8-tetrahydroimidazo[1,5-a]pyrimidin-6-amine acetate]"
13,0.247,"NC1=NC(c2ccsc2)(c2cccc(-c3cccnc3F)c2)C2=NCCCN12 (stereo not shown) [Example 64, 8-[3-(2-Fluoropyridin-3-yl)phenyl]-8-(3-thienyl)-2,3,4,8-tetrahydroimidazo[1,5-a]pyrimidin-6-amine acetate]"
14,0.059,"NC1=NC(c2ccncc2)(c2cccc(-c3cccnc3F)c2)C2=NCC(F)(F)CN12 (stereo not shown) [Example 68, 3,3-Difluoro-8-[3-(2-fluoropyridin-3-yl)phenyl]-8-pyridin-4-yl-2,3,4,8-tetrahydroimidazo[1,5-a]pyrimidin-6-amine 0.75 acetate]"
15,0.12,"NC1=NC(c2ccncc2)(c2cccc(-c3cncc(F)c3)c2)C2=NCC(F)(F)CN12 (stereo not shown) [Example 71, 3,3-Difluoro-8-[3-(5-fluoropyridin-3-yl)phenyl]-8-pyridin-4-yl-2,3,4,8-tetrahydroimidazo[1,5-a]pyrimidin-6-amine acetate]"
